Several values for one entry are separate records, joined by “and”; a condition that tells them apart may be missing. Equal entries are not always repeated.

The assay deals with ATF4 translation (SH-SY5Y-ATF4-NanoLuc cells). Briefly: ATF4 cell based assay (ATF4 5'-UTR NanoLuc luciferase reporter, Thapsigargin induced stress). The following applies: Thapsigargin 200-300 nM for 14-18 hours, average of two or more experimental runs, read-out: average ATF4 pathway inhibitory activity (IC50). The source says: The ATF4 reporter assay measures the effect of Thapsigargin induced cellular stress on ATF4 expression. For this reporter assay, a stable cell line was created by transfecting SH-SY5Y cells with a plasmid containing the NanoLuc® luciferase gene fused to the 5′-UTR of ATF4, under the control of the CMV promoter. The ATF4 5′-UTR contains two open reading frames which mediate the cellular stress-dependent translation of the reporter gene. Clones stably expressing the reporter construct were isolated and selected based on the luminescence response to thapsigargin and inhibition of this signal by test compounds. Briefly, SH-SY5Y-ATF4-NanoLuc cells were challenged with Thapsigargin for 14-18 hours to determine the stress effect with or without test compounds.
Cells were propagated in growth media consisting of 90% DMEM F12 (InVitrogen #11320-033), 10% Fetal Bovine Serum (Gibco #10438-026), 5 mM Glutamax (Gibco #35050-061), 5 mM Hepes, (Gibco #15630-080), and 0.5 mg/ml Geneticin (Gibco #10131-027). Cells were prepared for the assay by removing all media from cells, washing the plated cells with phosphate buffered saline, and detached by adding a solution comprised of 10% Tryple express solution (InVitrogen12604-021) and 90% enzyme-free cell dissociation buffer HANKS base (Gibco 13150-016). The trypsin was deactivated by adding assay media comprised of 90% phenol-red free DMEM F12 (InVitrogen, 11039), 10% Fetal Bovine Serum (Gibco #10438-026), (5 mM Glutamax (Gibco #35050-061), 5 mM Hepes, (Gibco #15630-080), and 0.5 mg/ml Geneticin (Gibco #10131-027). Suspended cells were spun down at 300 g for 5 min, the supernatant was removed and the cell pellet was suspended in warm media (30-37° C.) comprised as above but without 10% Fetal Bovine Serum to a concentration of 1e6 cells/mi.
Assay plates were prepared by adding 250 nL of compound stock solution in 100% DMSO to each well, followed by dispensing 20 microliters/well cell suspension to deliver 15-20 k cell/well. Cells were incubated for 1 hour at 37° C. Then, 5 μL of 1.5 μM or 1 μM of Thapsigargin (final concentration: 200-300 nM) was added to each well of cells. Assay plates containing cells were incubated for 14-18 hours at 37° C.
The measurement of luciferase produced by the ATF4 constructs was measured as follows. Aliquots of the Nano-Glo reagent (Nano-Glo® Luciferase Assay Substrate, Promega, N113, Nano-Glo® Luciferase Assay Buffer, Promega, N112 (parts of Nano-Glo® Luciferase Assay System, N1150) were brought to room temperature, the substrate and buffer were mixed according to manufacturer's instructions. The cell plates were equilibrated to room temperature. 25 microliters/well of the mixed Nano-Glo reagent were dispensed into assay wells and pulse spun to settle contents and the plate was sealed with film. The plates were incubated at room temperature for 1 hour before detecting luminescence on an EnVision® plate reader.
Background: A reporter such as luciferase makes a cellular process visible.
For the molecule `O=C(COc1ccc(Cl)cc1)NCC1CN(C(=O)COc2ccc(Cl)cc2)C1` [Example 1, 2-(4-chlorophenoxy)-N-((1-(2-(4-chlorophenoxy)acetyl)azetidin-3-yl)methyl)acetamide], the IC50 is 100 to 1000 nM. Consider `O=C(COc1ccc(Cl)cc1)NCC1CN(C(=O)CCc2ccc(Cl)cc2)C1` [Example 2, 2-(4-chlorophenoxy)-N-((1-(3-(4-chlorophenyl)propanoyl)azetidin-3-yl)methyl)acetamide], for which the IC50 lay in the range of 100 to 1000 nM. The figure for `O=C(COc1ccc(Cl)cc1)NCC1CN(C(=O)C2CC2c2ccc(Cl)cc2)C1` (centres unmarked) [Example 3, 2-(4-chlorophenoxy)-N-((1-(2-(4-chlorophenyl)cyclopropane-1-carbonyl)azetidin-3-yl)methyl)acetamide] is 100 to 1000 nM; for `O=C(COc1ccc(Cl)cc1)NCCC1CN(C(=O)COc2ccc(Cl)cc2)C1` [Example 4, 2-(4-chlorophenoxy)-N-(2-(1-(2-(4-chlorophenoxy)acetyl)azetidin-3-yl)ethyl)acetamide] it is 100 to 1000 nM. As to `CC(C)(C)OCC(=O)N1CC(CNC(=O)COc2ccc(Cl)cc2)C1` [Example 5, N-((1-(2-(tert-butoxy)acetyl)azetidin-3-yl)methyl)-2-(4-chlorophenoxy)acetamide], the IC50 is 1000 to 8000 nM.

Consider `O=C(COc1ccc(Cl)cc1)NCC1CN(CCCOc2ccc(Cl)cc2)C1` [Example 6, 2-(4-chlorophenoxy)-N-((1-(3-(4-chlorophenoxy)propyl)azetidin-3-yl)methyl)acetamide], for which the IC50 is less than 100 nM. The figure for `O=C(COc1ccc(Cl)cc1)NCC1(F)CN(CCOc2ccc(Cl)cc2)C1` [Example 7, 2-(4-chlorophenoxy)-N-((1-(2-(4-chlorophenoxy)ethyl)-3-fluoroazetidin-3-yl)methyl)acetamide] is 1000 to 8000 nM; for `O=C(COc1ccc(Cl)cc1)NCC1(F)CN(CCCOc2ccc(Cl)cc2)C1` [Example 8, 2-(4-chlorophenoxy)-N-((1-(3-(4-chlorophenoxy)propyl)-3-fluoroazetidin-3-yl)methyl)acetamide] it is 100 to 1000 nM.

`O=C(COc1ccc(Cl)cc1)NC1CN(CCCOc2ccc(Cl)cc2)C1` [Example 9, 2-(4-chlorophenoxy)-N-(1-(3-(4-chlorophenoxy)propyl)azetidin-3-yl)acetamide]: the IC50 is 100 to 1000 nM and 106 nM. The figure for `O=C(COc1ccc(Cl)cc1)NCC1(O)CN(CCCOc2ccc(Cl)cc2)C1` [Example 10, 2-(4-chlorophenoxy)-N-((1-(3-(4-chlorophenoxy)propyl)-3-hydroxyazetidin-3-yl)methyl)acetamide] is less than 100 nM; for `O=C(COc1ccc(Cl)cc1)NCC1CN(CCOc2ccc(Cl)cc2)C1` [Example 11, 2-(4-chlorophenoxy)-N-((1-(2-(4-chlorophenoxy)ethyl)azetidin-3-yl)methyl)acetamide] it is < 100 nM and 78 nM; for `O=C(COc1ccc(Cl)cc1)NCCC1CN(CCOc2ccc(Cl)cc2)C1` [Example 12, 2-(4-chlorophenoxy)-N-(2-(1-(2-(4-chlorophenoxy)ethyl)azetidin-3-yl)ethyl)acetamide] it is less than 100 nM. The figure for `O=C(NCC1CN(CCCOc2ccc(Cl)cc2)C1)C1CCc2cc(Cl)ccc2O1` (centres unmarked) [Example 13, 6-chloro-N-((1-(3-(4-chlorophenoxy)propyl)azetidin-3-yl)methyl)chromane-2-carboxamide] is less than 100 nM; for `O=C(COc1ccc(Cl)cc1)NCC1CN(CCCc2ccc(Cl)cc2)C1` [Example 14, 2-(4-chlorophenoxy)-N-((1-(3-(4-chlorophenyl)propyl)azetidin-3-yl)methyl)acetamide] it is less than 100 nM; for `O=C(COc1ccc(Cl)cc1)NCCC1CN(CCCc2ccc(Cl)cc2)C1` [Example 15, 2-(4-chlorophenoxy)-N-(2-(1-(3-(4-chlorophenyl)propyl)azetidin-3-yl)ethyl)acetamide] it is 100 to 1000 nM. The figure for `O=C(COc1ccc(Cl)cc1)NCC1CN(C(=O)OCCc2ccc(Cl)cc2)C1` [Example 16, 4-chlorophenethyl 3-((2-(4-chlorophenoxy)acetamido)methyl)azetidine-1-carboxylate] is 100 to 1000 nM; for `O=C(COc1ccc(Cl)cc1)NCC1CN(C(=O)OCCOc2ccc(Cl)cc2)C1` [Example 17, 2-(4-chlorophenoxy)ethyl 3-((2-(4-chlorophenoxy)acetamido)methyl)azetidine-1-carboxylate] it is less than 100 nM. In the case of `O=C(COc1ccc(Cl)cc1)NCC1CN(C(=O)OCc2ccc(Cl)cc2)C1` [Example 18, 4-chlorobenzyl 3-((2-(4-chlorophenoxy)acetamido)methyl)azetidine-1-carboxylate], the IC50 is less than 100 nM. For `CC(C)(C)COC(=O)N1CC(CNC(=O)COc2ccc(Cl)cc2)C1` [Example 19, neopentyl 3-((2-(4-chlorophenoxy)acetamido)methyl)azetidine-1-carboxylate], the half-maximal inhibitory concentration (IC50) is 1000 to 8000 nM and 1340 nM. Under `O=C(COc1ccc(Cl)cc1)NCC1CN(C(=O)NCc2ccc(Cl)cc2)C1` [Example 20, N-(4-chlorobenzyl)-3-((2-(4-chlorophenoxy)acetamido)methyl)azetidine-1-carboxamide] stands 1000 to 8000 nM; under `O=C(COc1ccc(Cl)cc1)NCC1CN(C(CCOc2ccc(Cl)cc2)C(=O)O)C1` (centres unmarked) [Example 21, 4-(4-chlorophenoxy)-2-(3-((2-(4-chlorophenoxy)acetamido)methyl)azetidin-1-yl) butanoic acid], 100 to 1000 nM.

Consider `COc1ccc(N2CC(CNC(=O)COc3ccc(Cl)cc3)C2)cc1` [Example 22, 2-(4-chlorophenoxy)-N-((1-(4-methoxyphenyl)azetidin-3-yl)methyl)acetamide], for which the IC50 lay in the range of 1000 to 8000 nM.

As to `O=C(COc1ccc(Cl)cc1)NCC1CN(c2cccnc2)C1` [Example 23, 2-(4-chlorophenoxy)-N-((1-(pyridin-3-yl)azetidin-3-yl)methyl)acetamide], the IC50 was 1000 to 8000 nM.

A word on the IC50: it is the concentration that gives 50% inhibition.
